Experimental findings from US20250051277A1, “DELIVERY OF THERAPEUTIC ALKALOID COMPOUNDS” (Sensorium Therapeutics, Inc., priority 2021, published 2025) are described below.

Like-named read-outs stand apart in the source and are kept apart here.

Series [1] is classed as physicochemical. The note with it: SGF with pepsin, pH 1.5, 37° C., 0.5 mM.
The conditions of series [2]: 5 μM.
The conditions of series [3]: 5 μM. This is another data set of the same source.
Series [4] is classed as physicochemical. The note with it: DI water, 25° C., 0.5 mM.
The nature of series [5]: Hydrolysis Assay of Example A1 (conversion by LCMS). The class given is physicochemical. The note with it: pH = 2.0, 37° C., 0.5 mM, 0.01M HCl. On the procedure:
The hydrolysis kinetics was under a certain temperature and measured by LCMS at a certain time interval. The corresponding LCMS chromatograms were recorded and the conversions were calculated. The hydrolysis conditions and the data were summarized in below table. LCMS spectra were obtained using Agilent 1200/G1956A or SHIMADZU LCMS-2020. Standard LCMS conditions were as follows (running time 1.55 minutes): • Acidic condition: Mobile Phase A: 0.0375% TFA in water (v/v). Mobile Phase B: 0.01875% TFA in acetonitrile (v/v); Column: Kinetex EVO C18 30*2.1 mm, 5 μm. • Basic condition: Mobile Phase A: 0.025% NH3·H2O in water (v/v). Mobile Phase B: Acetonitrile; Column: Kinetex EVO C18 2.1×30 mm, 5 μm. • Conversion (%)=peak area 1/(peak area 1+peak area 2)*100%, peak area 1 is the integration of hydrolyzed product, peak area 2 is the integration of starting material.

A short description of series [6]: Plasma Stability Assay of Example A3, human plasma. The note with it: 5 μM, 37° C., % of prodrug compound remaining.
The nature of series [7]: Plasma Stability Assay of Example A3, mouse plasma. The note with it: 5 μM, 37° C., % of prodrug compound remaining.
For series [8] the following is noted: 10 μM.
Procedure: 50 μL aliquots of positive controls and test compounds spiked into rat or human plasma (n=2) were added to a pre-warmed plate (37° C.) and shaken at 50 rpm. At each respective time point, the reaction was stopped by adding 500 μL of acetonitrile containing internal standards (100 nM aprozolam, 200 nM caffeine, 100 nM tolbutamide). All samples were vortexed for 10 minutes, followed by centrifugation at 3,220 g for 30 minutes to precipitate proteins. 100 μL of the supernatant is transferred to a new plate. The supernatant will be diluted with ultrapure water according to the LC-MS signal response and peak shape.
The conditions of series [9]: 10 μM. The source holds these as a separate data set.

As to `COc1ccc([C@@]23CCC(=NNC(=O)Nc4ccc(C(=O)O)cc4)C[C@@H]2N(C)CC3)cc1OC` (racemic) [Compound 259, 4-[[[(3aS,7aS)-3a-(3,4-dimethoxyphenyl)-1-methyl-2,3,4,5,7,7a-hexahydroindol-6-ylidene]amino]carbamoylamino]benzoic acid], the “Condition 1 Conversion (%)” value stood at 3.6% in [1] (time 1 min); 4.1% in series [1] (time 5 min); 16.5% in [1] (time 30 min); 25% in [1] (time 1 h); 29.5% in series [1] (time 4 h); 31.9% in [1] (time 24 h). Moreover, the “Human Plasma Prodrug (%)” value in series [2] (0 min) was 100%; in [2] (15 min), >99%; in series [2] (30 min) it was 96.6%; in series [2] (60 min), 85.7%; in series [2] (120 min), 70.0%; in series [2] (240 min), 54.3%. For the same compound, the “Mouse Plasma Prodrug (%)” value in [3] (0 min) is given as 100%; in series [3] (15 min) it was 86.2%; in [3] (30 min), 81.0%; in series [3] (60 min), 67.6%; in series [3] (120 min), 38.7%; in series [3] (240 min) it was 19.8%. The “Condition 2 Conversion (%)” value amounted to 0% in [4] (time 1 min); 0% in series [4] (time 5 min); 0% in [4] (time 30 min); 2% in series [4] (time 1 h); 4.3% in [4] (time 4 h); 7.8% in series [4] (time 24 h).

In the case of `COc1ccc([C@@]23CC/C(=N\NC(=O)c4cccnc4)C[C@@H]2N(C)CC3)cc1OC` [Compound 036, N-[[(3aS,7aS)-3a-(3,4-dimethoxyphenyl)-1-methyl-2,3,4,5,7,7a-hexahydroindol-6-ylidene]amino]pyridine-3-carboxamide], the “Condition 1 Conversion (%)” value in series [1] (time 1 min), in series [1] (time 5 min), in [1] (time 30 min), in series [1] (time 1 h), in series [1] (time 4 h) and in [1] (time 24 h) was 100% each time. For the same compound, the “Notes (hydrolysis)” value in [5] (0 to 1 min) is reported as “Hydrolyzed”. For the same compound, the “Conversion (%)” value in series [5] (1 min) is on record as 100%; in series [5] (time 0), 0%.

On to `COc1ccc([C@@]23CCC(OC(=O)c4ccc(N(C)C)cc4)=C[C@@H]2N(C)CC3)cc1OC` [Compound 355, [(3aS,7aS)-3a-(3,4-dimethoxyphenyl)-1-methyl-3,4,5,7a-tetrahydro-2H-indol-6-yl]4-(dimethylamino)benzoate], for which the “Condition 1 Conversion (%)” value in series [1] (time 1 min), in series [1] (time 5 min), in series [1] (time 30 min), in series [1] (time 1 h), in series [1] (time 4 h) and in series [1] (time 24 h) was 0% each time. The “Human Plasma Prodrug (%)” value is reported as 100.0% in series [6] (0 min); >99% in series [6] (15 min); >99% in [6] (30 min); >99% in series [6] (60 min); >99% in series [6] (120 min); 93.2% in series [6] (240 min). Further, in series [2] (0 min), the “Human Plasma Compound 001 (%)” value is listed as 0.0%. The “Condition 2 Conversion (%)” value in series [4] (time 1 min), in series [4] (time 5 min), in series [4] (time 30 min), in [4] (time 1 h), in [4] (time 4 h) and in [4] (time 24 h) was 0% each time. In addition, the “Mouse Plasma Prodrug (%)” value is 100.0% in series [7] (0 min); 50.6% in [7] (15 min); 30.8% in [7] (30 min); 9.9% in series [7] (60 min); 0.5% in series [7] (120 min); 0.0% in [7] (240 min).

Consider `COc1ccc([C@@]23CCC(OC(=O)c4cccc(C)c4C)=C[C@@H]2N(C)CC3)cc1OC` [Compound 373, (3aS,7aS)-3a-(3,4-dimethoxyphenyl)-1-methyl-2,3,3a,4,5,7a-hexahydro-1H-indol-6-yl2,3-dimethylbenzoate], for which the “Prodrug (%) remaining, Human Plasma” value is recorded as 100.0% in [8] (0 h); 96.3% in [8] (10 min); >99% in [8] (0.5 h); 94.8% in series [8] (1 h); 89.9% in [8] (2 h); 96.3% in [8] (4 h). In addition, the “Human Plasma Prodrug (%)” value in series [6] (0 min) was found to be 100%; in [6] (15 min), 93.9%; in series [6] (30 min) it was 96.5%; in [6] (60 min), 81.4%; in [6] (120 min) it was 66.1%; in series [6] (240 min), 17.2%. Further, the “Human Plasma Compound 001 (%)” value in series [2] (0 min) is recorded as 0%. Moreover, the “Prodrug (%) remaining, Rat Plasma” value came out at 100.0% in [9] (0 h); 81.0% in [9] (10 min); 58.4% in series [9] (0.5 h); 26.8% in [9] (1 h); 5.2% in series [9] (2 h); 1.3% in series [9] (4 h). For the same compound, the “Mouse Plasma Prodrug (%)” value was determined as 100% in [7] (0 min); 82% in series [7] (15 min); 64% in series [7] (30 min); 41% in series [7] (60 min); 12% in series [7] (120 min); 1% in [7] (240 min).

With `COc1ccc([C@@]23CCC(OC(=O)c4cccc(C)c4)=C[C@@H]2N(C)CC3)cc1OC` [Compound 374, (3aS,7aS)-3a-(3,4-dimethoxyphenyl)-1-methyl-2,3,3a,4,5,7a-hexahydro-1H-indol-6-yl3-methylbenzoate], the “Prodrug (%) remaining, Human Plasma” value in [8] (0 h) is given as 100.0%; in series [8] (10 min), >99%; in series [8] (0.5 h), >99%; in series [8] (1 h), >99%; in series [8] (2 h), >99%; in series [8] (4 h), 95.4%. Besides, the “Human Plasma Prodrug (%)” value in series [6] (0 min) was determined as 100%; in [6] (15 min), 98%; in series [6] (30 min) it was 88%; in series [6] (60 min) it was 84%; in series [6] (120 min) it was 62%; in [6] (240 min), 11%. In addition, the “Human Plasma Compound 001 (%)” value in [2] (0 min) was determined as 0.00%; in [2] (30 min), 3.19%; in series [2] (60 min), 5.92%; in series [2] (120 min), 9.01%; in [2] (240 min), 7.54%. Also, the “Prodrug (%) remaining, Rat Plasma” value in series [9] (0 h) was found to be 100.0%; in series [9] (10 min), 9.7%; in series [9] (0.5 h) it was 0.3%; in series [9] (1 h), 0.1%; in series [9] (2 h), 0.0%; in series [9] (4 h), 0.0%. Besides, the “Mouse Plasma Prodrug (%)” value in series [7] (0 min) is given as 100%; in [7] (15 min), 33%; in series [7] (30 min), 4%; in series [7] (60 min), 0%; in [7] (120 min), 0%; in series [7] (240 min), 0%.
